“Also recorded” adds a separate entry of the source.
Legend:
[1] = system: optically-induced postsynaptic currents (oPSC) in the NAc; test: Whole-cell patch clamp of optically-induced postsynaptic currents in NAc slices; set-up: species or system mouse; conditions: bath applied NBQX and APV together
Method: Mice (n=3 males) that were previously injected with ChR2 in the BLA were deeply anesthetized with isoflurane before decapitation and brain extraction. Coronal 250 μm thick sections were collected in ice cold 95% oxygen, 5% carbon dioxide-bubbled modified artificial cerebrospinal fluid (aCSF, 194 mM sucrose, 30 mM NaCl, 4.5 mM KCl, 1 mM MgCl2, 26 mM NaHCO3, 1.2 mM NaH2PO4, and 10 mM D-glucose) before incubating at 32° C. for 30 min in aCSF (124 mM NaCl, 4.5 mM KCl, 2 mM CaCl2), 1 mM MgCl2, 26 mM NaHCO3, 1.2 mM NaH2PO4, and 10 mM D-glucose). Slices were then stored at room temperature until recording.
Slices were hemisected, placed into a recording chamber, and perfused with temperature controlled aCSF (29-31° C.). NAc medium spiny neurons (MSNs) were visualized using infrared differential interference contrast light microscopy, Q-capture camera, and associated Pro 7 software. […] Optically evoked post synaptic currents (oPSC) were elicited by an optical fiber placed in the recording chamber that delivered 4 ms pulses of light (473 nm) every 20s for a total recording duration of 15 min. oPSCs were recorded using borosilicate glass pipettes (2-4 MΩ resistance) filled with Cesium Methanesulfonate internal solution (135 mM cesium methanesulfonate, 3 mM NaCl, 10 mM HEPES, 0.6 mM EGTA, 4 mM MgATP, 0.3 mM NaGTP, 5 mM QX-314C1, pH 7.2, 310 mOsm). […]

[2] = system: male mice; test: Subthreshold social defeat stress (SSDS) followed by social interaction test; assay type: in vivo, mouse
Method: (§1) Subthreshold social defeat stress: Retired CD1 breeders are singly housed and used as aggressors. Experimental mice are introduced to the home cage of an aggressor for 2 min to initiate the physical attack phase. Afterward, mice are transferred and housed on the opposite side of the aggressor, in the same cage separated by a perforated Plexiglass divider for 15 mins in order to maintain sensory contact. This process is repeated 3 times over a period of ~50 min.
(§2) Social Interaction: Mice are placed in a rectangular box (40 cm length×30 cm width×35 cm height; Stoelting, IL) divided into three compartments (two equal-sized end-chambers and a middle chamber) for five minute habituation phase (10-15 lux). After the habituation phase, two small wire cages are introduced into the two end chambers, one containing an unfamiliar, non-aggressive CD1 mouse and the other remaining empty. The amount of time mice spent sniffing each cage during the five-min test is assessed using CleverSys tracking software (CleverSys, Inc, Reston VA, USA).
(§3) For the chronic administration paradigms, silastic tubes (1.02 mm inner diameter×2.16 mm outer diameter) were filled with testosterone (10 mm) or 17β-Estradiol (E2; 1,3 and 10 mm; Sigma-Aldrich, St. Louis, MO, USA). Silastic implants were primed in 0.9% saline at 37° C. overnight prior to their subcutaneous use. Letrozole (1 mg/kg/day; Sigma-Aldrich, St. Louis, MO, USA) was dissolved in propylene glycol (MP Biomedicals, Santa Ana, CA, USA) and administered through ALZET minipumps (Model 1002, 0.25 μl/hour, 14 days; Cupertino, CA, USA). DHED (synthesized using previously described methods) was dissolved in 0.9% saline and administered through ALZET minipumps (Model 1002, 0.25 μl/hour, 14 days; Cupertino, CA, USA) at a dose of […]. Flutamide was administered through 1.5 mg slow-release subcutaneous pellets (Innovative Research of America, Sarasota, FL, USA). For acute administration, 17β-Estradiol (E2; 10 and […]) was dissolved in sesame oil (4 ml/kg, s.c.; Sigma-Aldrich, St. Louis, MO, USA).
(§4) Retired CD1 breeders were singly housed and used as aggressors. Two days prior to the start of the experiment, experimental mice were also singly housed. The stress procedure was performed using previously described methods. Briefly, experimental mice were introduced to the home cage of an aggressor for 2 min to initiate the physical attack phase. Afterward, mice were transferred and housed on the opposite side of the aggressor, in the same cage separated by a perforated Plexiglass divider for 15 mins in order to maintain sensory contact. This process was repeated 3 times over a period of ~50 min. Following the completion of the third cycle, mice were placed back in their home cages.
(§5) Acute E2 was administered 45 min prior to the initiation of stress or 5 min after the completion of stress. For the optogenetic stimulation, ChR2 and YFP-injected mice received a 4 Hz, 5 ms pulse width, 10-15 mW 470 nm light stimulation for 45 min prior to the initiation of stress. This stimulation paradigm was shown previously to increase synaptic transmission. The optogenetic set up consisted of an LED driver paired with a fiber-coupled LED light source attached to a bifurcated optogenetic path cable (400 μm, 0.49 NA; ThorLabs, Newton NJ, USA).
as §2, with “Social interaction was performed 24 hours following subthreshold social defeat or inescapable foot-shock stress. For the habituation phase, mice were” for “Social Interaction: Mice are”, “five minutes” for “five minute habituation phase”, “cages were” for “cages are”, “test was” for “test is”

[3] = system: male mice; test: Subthreshold social defeat stress followed by female urine sniffing test (anhedonia); assay type: in vivo, mouse
Method: as §1
(§6) Female Urine Preference Test: is performed 24 hours after the social interaction test as using previously described methods. The amount of time mice spent interacting with a cotton-tipped applicator soaked in either fresh male or female mouse urine during a total of 3 minutes is analyzed by an experimenter blind to the experimental groups.
as §3, §4, §5
as §6, with “FUST procedure was” for “Female Urine Preference Test: is”, “and 48 hours after stress. FUST was performed” for “as”, “was” for “is”

[4] = Body, testis and seminal vesicle weights after hormonal treatments; assay type: in vivo, mouse
Method: as §3
Subcutaneous implantations were performed during the same time as the orchiectomies. The surgical area was thoroughly cleaned with Betadine solution (10% povidone-iodine surgical scrub) followed by 70% ethanol. A small, approximately 1-cm incision was made between the scapulae using a pair of small sterile surgical scissors. Hemostats were then inserted and spread laterally to the incision to create a cavity in the subcutaneous space in which ALZET mini-osmotic pumps or silastic implants were inserted for continuous drug/vehicle delivery. The skin was closed with suturing.

[5] = in vivo; conditions: male, C57BL/6J, mouse
Source text: Although these findings support a critical role for E2, and not testosterone itself, as the biologically active hormone mediating stress susceptibility in hypogonadal male mice, E2 replacement therapy cannot be considered as a viable treatment in human male veteran populations due to its peripheral side effects, including gynecomastia and erectile dysfunction. However, isolating the effects of E2 to the central nervous system would provide a viable therapy. […] As a next step in advancing this treatment, the oral bioavailability of DHED was assessed, comparing oral versus intravenous delivery routes.
Pharmacokinetic (PK) assessment of prodrugs. […] Generally, this PK study and analysis proceeds similarly to previous studies aimed at assessing the oral bioavailability of (2R,6R)-HNK. […] PK is performed using tandem liquid chromatography-mass spectrometry (LC-MS/MS) for quantification. […] Statistical significance is calculated using the unpaired t-test or Mann-Whitney U test for comparing AUC values. […] E2 levels are measured with liquid chromatography tandem mass spectrometry (LC-MS/MS) using standard methods. […] If levels of E2 are too low to be quantified via this measure, and to distinguish naturally-produced from DHED prodrug-produced E2, E2 levels can be quantitated at the femtomole level utilizing deuterium-labelled E2 standards and triple quadrupole mass spectrometry.

[6] = system: estrogen or other hormone receptors; conditions: cited from earlier work
[7] = system: rodents; conditions: high doses administered orally to rodents; cited from earlier work
[8] = system: progesterone receptor (PR) expression; conditions: rat, in vivo; cited from earlier work
[9] = system: galanin expression; conditions: rat, in vivo; cited from earlier work
[10] = system: C3 expression; conditions: rat, in vivo; cited from earlier work
[11] = in vivo; cited from earlier work
[12] = Pharmacokinetic assessment of the DHED-acetate prodrug, IV and PO; assay type: in vivo, mouse
Method: FIGS. 29A-29B illustrate the pharmacokinetic assessment of the DHED-acetate prodrug. The concentration levels of the DHED-acetate prodrug (FIG. 29A) and DHED (FIG. 29B) were measured in mice (n=3) after IV and PO administration of 5 mg/kg solution dose of DHED-acetate prodrug.
Pharmacokinetic (PK) assessment of prodrugs. […] Generally, this PK study and analysis proceeds similarly to previous studies aimed at assessing the oral bioavailability of (2R,6R)-HNK. As in previous data with DHED (FIGS. 6A-6B), male C57BL/6J mice (n=6/time point) receive 200 μg of prodrug in 0.9% (20% cyclodextrin) administered either IV or PO. Plasma and brain are collected at 5 min, 15 min, 30 min, 1 h, and 4 h after administration. PK is performed using tandem liquid chromatography-mass spectrometry (LC-MS/MS) for quantification. Pharmacokinetic analysis is performed using Phoenix WinNonLin. Non-compartmental analysis is performed to determine the following parameters: C0 (Back-extrapolated concentration at time 0); Cmax (Maximum observed concentration); Tmax (time of maximum observed concentration); AUC0-t (Area under the concentration-time curve from hour 0 to the last measurable concentration, estimated by the linear trapezoidal rule). Statistical significance is calculated using the unpaired t-test or Mann-Whitney U test for comparing AUC values. Importantly, pharmacokinetic measurements observe both the level of the prodrug and free DHED moiety in the plasma. A critical comparison is measuring the DHED levels after administration of the prodrug compared to after administration of DHED itself. […] E2 levels are measured with liquid chromatography tandem mass spectrometry (LC-MS/MS) using standard methods. […] If levels of E2 are too low to be quantified via this measure, and to distinguish naturally-produced from DHED prodrug-produced E2, E2 levels can be quantitated at the femtomole level utilizing deuterium-labelled E2 standards and triple quadrupole mass spectrometry.

[13] = chronic treatment (silastic implant or minipump), orchiectomized male mice + SSDS
[14] = chronic treatment, gonadally intact male mice + SSDS

SMILES: N[C@@H](CCCP(=O)(O)O)C(=O)O [APV]
- oPSCs in NAc of ERβ-cre mice with ChR2 in the BLA [1]: blocked

SMILES: C[C@]12CC[C@H]3[C@@H](CCC4=CC(=O)C=C[C@@]43O)[C@@H]1CC[C@@H]2O [DHED, 10β,17β-dihydroxyestra-1,4-dien-3-one]
- stress-induced social interaction deficits [2, 13]: reversed the social interaction and hedonic deficits
- stress-induced anhedonia [3, 13]: reversed the social interaction and hedonic deficits
- body weight ([4]; chronic treatment): did not increase; also recorded: no difference
- seminal vesicle weight ([4]; chronic treatment): did not increase; also recorded: no difference
- relative seminal vesicle weights ([4]; s.c. treatment, compared to vehicle (saline) control): unaffected
- bioavailability ([5]; oral bioavailability measured in brain): < 2%
- bioavailability ([5]; oral bioavailability measured in plasma): 10%
- effects on estrogen or other hormone receptors throughout the body [6]: no effects on estrogen or other hormone receptors
- efficacy in models of hot flushes [7]: E2-like efficacy
- medial preoptic area PR expression [8]: increases medial preoptic area PR expression
- pituitary galanin expression [9]: does not change
- uterus C3 expression [10]: does not change

SMILES: C[C@]12CC[C@H]3[C@@H](CCC4=CC(=O)CC[C@@]43C)[C@@H]1CC[C@@H]2OC(=O)[C@@H]1CCCN1C(=O)c1ccc(S(N)(=O)=O)cn1 [EC586]
- oral bioavailability of testosterone [11]: substantially enhance the oral bioavailability

SMILES: CC(=O)O[C@H]1CC[C@H]2[C@@H]3CCC4=CC(=O)C=C[C@]4(O)[C@H]3CC[C@]12C [Example 1.1, (8S,9S,10S,13S,14S,17S)-10-hydroxy-13-methyl-3-oxo-6,7,8,9,10,11,12,13,14,15,16,17-dodecahydro-3H-cyclopenta[a]phenanthren-17-yl acetate]
- concentration level of the prodrug after IV administration ([12]; mice (n=3), 5 mg/kg solution dose, IV): very rapidly metabolized
- concentration level of the prodrug after PO administration ([12]; mice (n=3), 5 mg/kg solution dose, PO): cannot be detected
- conversion of the prodrug into DHED ([12]; mice, 5 mg/kg, IV or PO): hydrolyzed into DHED

SMILES: NS(=O)(=O)c1cccc2c1c([N+](=O)[O-])cc1nc(O)c(O)nc12 [NBQX]
- oPSCs in NAc of ERβ-cre mice with ChR2 in the BLA [1]: blocked

SMILES: CCCCCCCCCC(=O)O[C@H]1CC[C@H]2[C@@H]3CCC4=CC(=O)CC[C@]4(C)[C@H]3CC[C@]12C [Testosterone-decanoate]
- oral bioavailability of testosterone [11]: substantially enhance the oral bioavailability

SMILES: N#Cc1ccc(C(c2ccc(C#N)cc2)n2cncn2)cc1 [letrozole, Letrozole]
- social interaction deficits following stress [2, 14]: deficits in social interaction
- anhedonia following stress [3, 14]: induced a stress-susceptible phenotype
- body weight ([4]; chronic treatment): increased body weight
- seminal vesicle weight ([4]; chronic treatment): increased seminal vesicle weight
- testis weight ([4]; chronic treatment): no difference in testes weight

From patent US20260248809A1, “ESTRADIOL PRODRUGS AND METHODS OF USE THEREOF” (UNIVERSITY OF MARYLAND, BALTIMORE, priority 2022, published 2026)
